According to publication PMC3083410, “A Soluble Acetylcholinesterase Provides Chemical Defense against Xenobiotics in the Pinewood Nematode” (PLoS ONE, 2011):

Legend:
BxACE-3 = target: T1, BxACE-3 (Bursaphelenchus xylophilus, UniProt D2JYX1); test: colorimetric acetylthiocholine/DTNB assay; assay type: biochemical; settings: read-out: % inhibition at 2 mM
T1 construct: gene AChE3; recombinant, baculovirus system

BxACE-1 = target: T2, BxACE-1 (Bursaphelenchus xylophilus, UniProt D2JYW9); test: colorimetric acetylthiocholine/DTNB assay; assay type: biochemical; settings: read-out: % inhibition at 2 mM
T2 construct: gene AChE1; recombinant, baculovirus system
T2 sequence (D2JYW9 entry or part of it): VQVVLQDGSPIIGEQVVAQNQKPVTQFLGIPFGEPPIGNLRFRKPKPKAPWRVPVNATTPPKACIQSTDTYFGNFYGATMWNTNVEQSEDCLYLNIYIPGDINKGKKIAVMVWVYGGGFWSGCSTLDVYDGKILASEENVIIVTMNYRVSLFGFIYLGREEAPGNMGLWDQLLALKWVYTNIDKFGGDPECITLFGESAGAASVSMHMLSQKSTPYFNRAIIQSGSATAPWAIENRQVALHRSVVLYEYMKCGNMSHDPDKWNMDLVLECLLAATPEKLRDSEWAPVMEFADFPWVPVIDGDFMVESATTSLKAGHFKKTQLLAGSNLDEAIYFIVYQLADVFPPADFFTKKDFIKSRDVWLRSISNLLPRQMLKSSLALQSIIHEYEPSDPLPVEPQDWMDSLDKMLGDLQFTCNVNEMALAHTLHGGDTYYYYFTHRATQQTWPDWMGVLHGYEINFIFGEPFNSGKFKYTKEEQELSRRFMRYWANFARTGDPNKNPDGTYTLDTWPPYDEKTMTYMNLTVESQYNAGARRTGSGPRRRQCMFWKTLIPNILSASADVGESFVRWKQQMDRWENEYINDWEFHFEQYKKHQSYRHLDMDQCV

T1 sequence (D2JYX1 entry or part of it): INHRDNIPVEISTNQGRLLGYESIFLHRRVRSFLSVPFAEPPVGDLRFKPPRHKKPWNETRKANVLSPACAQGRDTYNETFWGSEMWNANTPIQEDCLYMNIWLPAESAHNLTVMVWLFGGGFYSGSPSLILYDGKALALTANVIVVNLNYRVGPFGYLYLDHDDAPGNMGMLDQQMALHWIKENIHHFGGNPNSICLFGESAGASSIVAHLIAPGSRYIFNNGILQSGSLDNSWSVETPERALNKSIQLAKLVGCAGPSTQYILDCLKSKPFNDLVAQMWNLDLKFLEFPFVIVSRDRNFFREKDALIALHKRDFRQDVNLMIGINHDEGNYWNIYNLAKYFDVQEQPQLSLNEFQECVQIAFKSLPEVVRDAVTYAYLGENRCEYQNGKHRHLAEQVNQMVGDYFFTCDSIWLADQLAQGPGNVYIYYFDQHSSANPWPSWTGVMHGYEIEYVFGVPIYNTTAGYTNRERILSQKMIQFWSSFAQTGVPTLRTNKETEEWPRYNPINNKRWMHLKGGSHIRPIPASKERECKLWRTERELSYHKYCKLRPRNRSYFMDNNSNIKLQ

| Compound | inhibition at 2000 µM (BxACE-3) | inhibition at 2000 µM (BxACE-1) |
| --- | --- | --- |
| C=C(C)C1CC=C(C)CC1 (stereo not drawn) [limonene] | ~10% |  |
| CC1=CCC2CC1C2(C)C (stereo not drawn) [α-pinene] | ~10% | ~25% |
